Results reported in patent publication US11298403B2, “Therapeutic agent for inflammatory bowel disease” (StemRIM Inc., priority 2017, dated 2022).

What was measured:
Type in all cases: in vivo, C57BL/6 mice
IL-1β = test: Example 1: inflammatory cytokine mRNA in large intestine by quantitative PCR (IL-1β); details: 9th day of DSS drinking, 5 mg/kg i.v. on 6th and 7th days, FIG. 3
Source text: (§1) Colitis was induced in C57BL/6 mice (8 to 10-week-old, male, body weight about 20 g) by allowing them to freely drink the 3% DSS aqueous solution in place of purified water (RO water) (drinking of the DSS aqueous solution was continued until the removal of the large intestine). Mice that were allowed to freely drink purified water (RO water) (hereinafter, referred to as “normal mice”) were used as comparative subjects.
(§2) The IBD model mice produced as described above were divided into the HMGB1 peptide (1-44) administration group (n=3) and the control group (n=3). […] Hereinafter, “the Xth day after the start of drinking the DSS aqueous solution” is expressed as an abbreviation “the Xth day of DSS drinking”.
(§3) The body weight of the mice was measured daily from the start of drinking the DSS aqueous solution until the removal of the large intestine. On the 9th day of DSS drinking, the large intestine was excised from the mice, and the length of the large intestine was measured. mRNA was extracted from the terminal part near the anus in the excised large intestine, and the expression level of inflammatory cytokines (TNF-α, IL-1β, and IL-6) was analyzed by quantitative PCR.

TNF-α = test: Example 1: inflammatory cytokine mRNA in large intestine by quantitative PCR (TNF-α); details: 9th day of DSS drinking, 5 mg/kg i.v. on 6th and 7th days, FIG. 3
Source text: as §1, §2, §3

[1] = system: IBD model mice (DSS-induced enteritis); test: DSS-induced colitis (IBD) model mice, Example 2: intravenous peptide on 1st, 3rd, 5th and 7th days; body weight, large intestine length, HE staining; details: 10th day of DSS drinking, 5 mg/kg i.v. on 1st
Description: as §1
(§4) The DSS aqueous solution and the HMGB1 peptide (1-44) were prepared and the inflammatory bowel disease model mice were produced in the same way as Example 1.
The IBD model mice produced as described in Example 1 were divided into the HMGB1 peptide (1-44) administration group (n=3) and the control group (n=3). The test substance was administered by injecting an HMGB1 peptide (1-44) solution, which has been adjusted to a concentration of 0.5 mg/ml with saline as the vehicle, into the vein at a dose of 200 μl/animal (5 mg/kg as the peptide dose) on the 1st, 3rd, 5th, and 7th days of DSS drinking. In the control group, saline was injected into the vein at a dose of 200 μl/animal on the 1st, 3rd, 5th, and 7th days of DSS drinking. No substance was administered to the normal mice (n=3).
The body weight of the mice was measured daily from the start of drinking the DSS aqueous solution until the removal of the large intestine. On the 10th day of DSS drinking, the large intestine was excised from the mice, and the length of the large intestine was measured. Tissue sections of the cross-section of the intestinal tract were produced using the terminal part near the anus of the excised large intestine, and hematoxylin-eosin (HE) staining was performed.

[2] = system: IBD model mice (DSS-induced enteritis); test: DSS-induced colitis (IBD) model mice, Example 3: peptide-containing hydrogel embedded on the back; body weight, large intestine length; details: 10th day of DSS drinking, MedGel PI5 hydrogel with 20 μl of 5 μg/μl peptide embedded on the back one day before DSS, n=3
Description: as §1, §4
A bioabsorbable hydrogel (MedGel (registered trademark) PI5, manufactured by MedGEL CO., LTD) cut into a size of about 5 mm×5 mm was soaked with 20 μl of an HMGB1 peptide (1-44) solution, which has been adjusted to a concentration of 5 μg/μl with saline as the vehicle, by dripping and allowed to stand under ice-cooling for 30 minutes. The resulting hydrogel was used for embedding in the mice of the HMGB1 peptide (1-44) administration group. […]
The body weight of the mice was measured daily from the start of drinking the DSS aqueous solution until the removal of the large intestine. On the 10th day of DSS drinking, the large intestine was excised from the mice, and the length of the large intestine was measured.

[3] = system: IBD model mice (DSS-induced enteritis); test: DSS-induced colitis (IBD) model mice, Example 1: intravenous peptide on 6th and 7th days; body weight and large intestine length; details: 9th day of DSS drinking, 5 mg/kg i.v. on 6th and 7th days, n=3
Description: Dextran sulfate sodium (DSS) (molecular weight 5,000 to 6,000, manufactured by Nacalai Tesque, catalog No. 10930-94) was dissolved in water to prepare a 3% (w/v) DSS aqueous solution. A peptide consisting of amino acid residues 1-44 of the human-derived HMGB1 protein (SEQ ID NO: 1) was chemically synthesized by a solid-phase method. Hereinafter, the HMGB1 fragment peptide is referred to as the HMGB1 peptide (1-44) and is expressed as an abbreviation “1-44” in the drawings corresponding to the Examples. […]
as §2, §3

IL-6 = test: Example 1: inflammatory cytokine mRNA in large intestine by quantitative PCR (IL-6); details: 9th day of DSS drinking, 5 mg/kg i.v. on 6th and 7th days, FIG. 3
Source text: as §1, §2, §3

Substance: HMGB1 peptide (1-44): peptide consisting of amino acid residues 1-44 of the human-derived HMGB1 protein (SEQ ID NO: 1), chemically synthesized by a solid-phase method (MGKGDPKKPRGKMSSYAFFVQTCREEHKKKHPDASVNFSEFSKK)
- expression level of IL-1β in the large intestine vs control group (IL-1β): significantly lower than that of the control group
- expression level of TNF-α in the large intestine vs control group (TNF-α): significantly lower than that of the control group
- mucosal tissue damage of the large intestine (HE staining) ([1]; FIG. 6): damage of the mucosal tissue was suppressed
- body weight vs control group ([1]; n=3, FIG. 4): significantly higher than that of the control group
- length of the large intestine vs control group ([1]; n=3, FIG. 5): significantly longer than that of the control group
- body weight vs control group ([2]; FIG. 7): higher than that of the control group
- length of the large intestine vs control group ([2]; FIG. 8): longer than that of the control group
- body weight vs control group ([3]; FIG. 1): significantly higher than that of the control group
- length of the large intestine vs control group ([3]; FIG. 2): significantly longer than that of the control group
- expression level of IL-6 in the large intestine vs control group (IL-6): significantly lower than that of the control group
